These results are taken from ChEMBL document CHEMBL1138100 (Bioorg Med Chem Lett, 2006).

The target in test [1] is Inosine-5'-monophosphate dehydrogenase 2 (Homo sapiens, UniProt P12268). The test can be described thus: Inhibition of human IMPDH2.
For test [2], the target named is Inosine-5'-monophosphate dehydrogenase 1 (Homo sapiens, UniProt P20839). The test can be described thus: Inhibition of human IMPDH1.
Test [3] concerns the target Inosine-5'-monophosphate dehydrogenase (IMPDH) (Homo sapiens) (UniProt P20839+P12268). The test can be described thus: Selectivity for IMPDH1 over IMPDH2. It counts as protein assay.

Sequence of Inosine-5'-monophosphate dehydrogenase 1 (P20839 whole entry): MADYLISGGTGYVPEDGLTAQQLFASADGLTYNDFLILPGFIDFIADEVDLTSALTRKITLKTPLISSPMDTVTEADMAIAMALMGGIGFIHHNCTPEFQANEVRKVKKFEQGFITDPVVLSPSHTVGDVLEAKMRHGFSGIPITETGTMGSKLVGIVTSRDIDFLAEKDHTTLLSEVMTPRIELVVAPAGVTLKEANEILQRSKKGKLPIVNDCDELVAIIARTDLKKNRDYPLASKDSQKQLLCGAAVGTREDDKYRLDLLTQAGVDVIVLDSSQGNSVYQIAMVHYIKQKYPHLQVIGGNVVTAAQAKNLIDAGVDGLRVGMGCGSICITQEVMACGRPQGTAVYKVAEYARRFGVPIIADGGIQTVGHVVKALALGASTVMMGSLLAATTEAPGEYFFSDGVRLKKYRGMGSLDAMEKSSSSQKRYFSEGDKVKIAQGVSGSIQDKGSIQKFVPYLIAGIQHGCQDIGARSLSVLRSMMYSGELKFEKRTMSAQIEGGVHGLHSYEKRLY
Sequence of Inosine-5'-monophosphate dehydrogenase (IMPDH) (Homo sapiens) (P20839 whole entry, looked up, other chains not shown): as the sequence (P20839 whole entry) above

What is called IC50 is the concentration that gives 50% inhibition. Regarding `COc1c(C)c2c(c(O)c1C/C=C(\C)CN(CCP(=O)(O)O)C(C)=O)C(=O)OC2`, the IC50 in test [1] is 785 nM.

The compound `COc1c(C)c2c(c(O)c1C/C=C(\C)CN(C=O)CCP(=O)(O)O)C(=O)OC2` registered an IC50 in test [1] of 749 nM. The IC50 values of the last two compounds are within 1.5-fold of each other.

`COc1c(C)c2c(c(O)c1C/C=C(\C)CN(CCP(=O)(O)O)S(N)(=O)=O)C(=O)OC2` showed an IC50 in test [1] of 93 nM. Against the preceding compound, the IC50 is about 8.1-fold lower. As for `COc1c(C)c2c(c(O)c1CC=C(C)C)C(=O)OC2`, the IC50 in test [1] came out at 254 nM.

Take `COc1c(C)c2c(c(O)c1C/C=C(\C)CP(=O)(OC)OC)C(=O)OC2`: the half-inhibitory concentration (IC50) in test [1] turned out to be 289 nM. In the case of `COc1c(C)c2c(c(O)c1C/C=C(\C)CN(C)CCP(=O)(O)O)C(=O)OC2`, the concentration for half-maximal inhibition (IC50) in test [1] is more than 1000 nM.

`COc1c(C)c2c(c(O)c1C/C=C(\C)CCCP(=O)(O)O)C(=O)OC2`: in test [1], the IC50 stood at 86 nM. That is a double-digit nanomolar value. Still for that read-out and setting: in the case of `CCc1c(C)c2c(c(O)c1C/C=C(\C)CN(C)CCP(=O)(O)O)C(=O)OC2` it was 132 nM. For `CCc1c(C)c2c(c(O)c1C/C=C(\C)CNCCP(=O)(O)O)C(=O)OC2`, the IC50 is 37 nM in test [2] and 13 nM in test [1]. Further, the Selectivity ratio in test [3] worked out at 2.8. Take `COc1c(C)c2c(c(O)c1C/C=C(\C)CP(=O)(O)O)C(=O)OC2`: half-maximal inhibition in test [1] (IC50) required 168 nM. In test [1], `CCOP(=O)(CCNC/C(C)=C/Cc1c(O)c2c(c(C)c1OC)COC2=O)OCC` showed an IC50 of more than 1000 nM. For `CCc1c(C)c2c(c(O)c1C/C=C(\C)CN(CCP(=O)(O)O)S(C)(=O)=O)C(=O)OC2`, in test [1], the IC50 was found to be 68 nM. Take `COc1c(C)c2c(c(O)c1C/C=C(\C)CN(CCP(=O)(O)O)S(C)(=O)=O)C(=O)OC2`: in test [1], the IC50 amounted to 498 nM. Still for that read-out and setting: to `COc1c(C)c2c(c(O)c1C/C=C(\C)CCP(=O)(O)O)C(=O)OC2` belongs 96 nM.

On to `CCc1c(C)c2c(c(O)c1C/C=C(\C)COCP(=O)(O)O)C(=O)OC2`, for which the half-inhibitory concentration (IC50) stood at 38 nM in test [2] and 23 nM in test [1]. In addition, the Selectivity ratio in test [3] was 1.7. For the compound `COc1c(C)c2c(c(O)c1C/C=C(C)/C=C/P(=O)(O)O)C(=O)OC2`, 506 nM corresponded to half-maximal inhibition in test [1] (IC50).

With `COc1c(C)c2c(c(O)c1C/C=C(\C)CCC(=O)O)C(=O)OC2` [MYCOPHENOLIC ACID], the concentration for half-maximal inhibition (IC50) in test [2] was 32 nM.

Turning to `COc1c(C)c2c(c(O)c1C/C=C(\C)CNCP(=O)(O)O)C(=O)OC2`, in test [1], the IC50 is more than 1000 nM. In test [1], `COC/C(C)=C/Cc1c(O)c2c(c(C)c1OC)COC2=O` gave an IC50 of 273 nM. In test [1], `COc1c(C)c2c(c(O)c1C/C=C(\C)COCP(=O)(O)O)C(=O)OC2` came in with an IC50 of 246 nM. The IC50 values of the last two compounds are within 1.5-fold of each other. With `CCc1c(C)c2c(c(O)c1C/C=C(\C)CN(CCP(=O)(O)O)S(N)(=O)=O)C(=O)OC2`, inhibition in test [1] was half-maximal at 24 nM (IC50).

In the case of `CCc1c(C)c2c(c(O)c1C/C=C(\C)CP(=O)(O)O)C(=O)OC2`, the figures for the IC50 in test [2] and in test [1] were 71 nM and 20 nM, respectively. Besides, in test [3], the Selectivity ratio was determined as 3.6. In the case of `COc1c(C)c2c(c(O)c1C/C=C(\C)CNCCP(=O)(O)O)C(=O)OC2`, in test [1], half-maximal inhibition (IC50) required 499 nM. That is a sub-micromolar value.
